Source: ChEMBL document CHEMBL3632602, “Selenoacyclovir and Selenoganciclovir: Discovery of a New Template for Antiviral Agents” (J Med Chem, 2015)
In brackets after ≈: the same amount, converted by molar mass.

What was measured:
Human alphaherpesvirus 1 = test: Antiviral activity against Herpes simplex virus 1 strain F VR-733 infected in African green monkey Vero cells after 3 days by MTT assay; type: functional, organism-based; conditions: Human alphaherpesvirus 1, Strain F ATCC VR 733, Vero, 72 h
Human alphaherpesvirus 2 = test: Antiviral activity against Herpes simplex virus 2 strain MS VR-540 infected in African green monkey Vero cells after 3 days by MTT assay; type: functional, organism-based; conditions: Human alphaherpesvirus 2, MS VR-540, Vero, 72 h
Human alphaherpesvirus 3 = test: Antiviral activity against Varicella-zoster virus Ellen VR-1367 infected in African green monkey Vero cells after 3 days by MTT assay; type: functional, organism-based; conditions: Human alphaherpesvirus 3, Ellen VR-1367, Vero, 72 h
Human betaherpesvirus 5 = test: Antiviral activity against Human cytomegalovirus Davis VR-807 infected in […] after 3 days by MTT assay; type: functional, organism-based; conditions: Human betaherpesvirus 5, Davis VR-807, 72 h
[1] = Cytotoxicity against human HEL299 cells after 3 days by MTT assay; type: cell-based, HEL 299
[2] = Solubility of compound in double-deionized water after 3 days by LC-MS/MS analysis; type: physicochemical

In the case of `Nc1nc2c(ncn2C[Se]CCO)c(=O)[nH]1`, the EC50 (Human alphaherpesvirus 1) is reported as 1.47 µM, the EC50 (Human alphaherpesvirus 2) is reported as 6.34 µM and the EC50 (Human alphaherpesvirus 3) is reported as over 100 µM. For the same compound, the EC50 (Human betaherpesvirus 5) was over 100 µM, the CC50 at 72 h [1] was over 100 µM and the solubility at 72 h [2] was 1060 µg/mL (≈ 3.68 mM).
Compound `Nc1nc2c(ncn2C[Se]C(CO)CO)c(=O)[nH]1` has an EC50 (Human alphaherpesvirus 1) of over 100 µM, an EC50 (Human alphaherpesvirus 2) of over 100 µM and an EC50 (Human alphaherpesvirus 3) of over 100 µM. It also gave an EC50 (Human betaherpesvirus 5) of 53.1 µM, a CC50 at 72 h [1] of over 100 µM and a solubility at 72 h [2] of 2230 µg/mL (≈ 7.01 mM).
Compound `Nc1nc2c(ncn2COCCO)c(=O)[nH]1` [ACYCLOVIR] has an EC50 (Human alphaherpesvirus 1) of 0.66 µM, an EC50 (Human alphaherpesvirus 2) of 1.02 µM and an EC50 (Human alphaherpesvirus 3) of 6.4 µM. It also gave an EC50 (Human betaherpesvirus 5) of 18.9 µM, a CC50 at 72 h [1] of over 100 µM and a solubility at 72 h [2] of 3920 µg/mL (≈ 17.4 mM).
`Nc1nc2c(ncn2COC(CO)CO)c(=O)[nH]1` [GANCICLOVIR] gave an EC50 (Human alphaherpesvirus 1) of 0.9 µM, an EC50 (Human alphaherpesvirus 2) of 1.4 µM and an EC50 (Human alphaherpesvirus 3) of 11.1 µM. It also gave an EC50 (Human betaherpesvirus 5) of 2.14 µM, a CC50 at 72 h [1] of over 100 µM and a solubility at 72 h [2] of 4960 µg/mL (≈ 19.4 mM).
